From patent publication US12377112B2, “Methods of treating neurocognitive disorders, chronic pain and reducing inflammation” (priority 2019, dated 2025)

What was measured:
patients = settings: human, in vivo; cited from earlier work
male CD1 mice = experiment: Pentylenetetrazol (PTZ) infusion seizure threshold; assay type: in vivo, mouse; settings: 10 mg/kg
Description: Administration of chemical convulsant agents such as Pentylenetetrazol (PTZ) are used to mimic behavioral aspects of human epilepsy. PTZ causes myoclonic jerking movements, clonic convulsions or forelimb/hindlimb tonic extension in rodents. The PTZ model is primarily used to evaluate anti-convulsant properties of antiepileptic drugs (AED's) by identifying compounds which raise seizure threshold but can also be used to identify pro-convulsant agents that lower seizure threshold. PTZ is a well-established model for acute and repetitive seizures, and is accepted for use for screening AED action. PTZ induces myoclonic and generalized tonic-clonic seizures.
Male CD1 mice (age 6-8 weeks, weight 30.0-42.9 g, source: Charles River UK) were used in this study. […] During this time-infusion, mice were individually assessed for the onset of myoclonic, forelimb tonus and hindlimb tonus seizures. The latencies (in seconds) from start of infusion to the appearance of first myoclonus, forelimb tonic and hind limb tonic extension were recorded. […] For animals reaching this cut off, the dose of PTZ in mg/kg infused over the 120 s was calculated as the threshold dose. […]
Data was analysed using one way ANOVA in which the dose of PTZ required to induce seizure was compared between each treatment groups and vehicle. […]

[1] = tested on: children aged 7 to 14 years old with ADHD; settings: 6-week trial, children aged 7 to 14 years with ADHD; cited from earlier work

## CNCC[C@@H](Oc1ccccc1C)c1ccccc1 [Atomoxetine, atomoxetine]
patients
  Decreased appetite, % of patients: 15-20%

## CN1C(=O)CN=C(c2ccccc2)c2cc(Cl)ccc21 [Diazepam, diazepam]
Male CD1 mice
  Dose of PTZ required to induce myoclonic, forelimb and hindlimb tonic seizures: significantly increased

## NC(=O)C[S+]([O-])C(c1ccccc1)c1ccccc1 (stereo not drawn) [modafinil]
[1]
  Response rate compared to placebo: 78%
